Laboratory results reported in patent US8252737B2, “Antimicrobial peptides and methods of use” (priority 2004, dated 2012).
Converted amounts (≈) assume the structure as drawn.

What was measured:
[1] = test system: E. coli (UB 1005 wt and DC2 abs)
[2] = C610 abs
S. typhimurium C610 abs = conditions: C610 abs
[3] = test system: Staphylococcus epidermidis
human erythrocytes = test: Hemolytic activity (MHC), Protocol B, 18 hours; conditions: for MHC (μg/ml) hRBC: maximal peptide concentration with no hemolysis after 18 hours
Summary of the method: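 Hemolysis of 1% human erythrocytes in phosphate-buffered saline by 2-fold diluted D-peptides, incubated 18 h at 37 °C; hemoglobin release read spectrophotometrically. Value is the maximal peptide concentration producing no hemolysis, relative to erythrocytes without peptide.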

[4] = RP-HPLC temperature profiling (hydrophobicity and self-association/dimerization parameter PA); assay type: physicochemical
Summary of the method: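 RP-HPLC retention times recorded over temperature profiling from 5°C to 80°C, with retention relative to native V681 at each limit used as hydrophobicity. Self-association parameter PA defined as the maximal change in retention time from 5°C, after subtracting that of monomeric random-coil control peptide C.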

Structure (SMILES): CC[C@H](C)[C@H](NC(=O)[C@H](C)NC(=O)[C@H](CCCCN)NC(=O)[C@H](CC(C)C)NC(=O)[C@H](C)NC(=O)[C@@H](NC(=O)[C@H](Cc1c[nH]cn1)NC(=O)[C@H](CC(C)C)NC(=O)[C@@H](NC(=O)[C@@H](NC(=O)[C@H](CCCCN)NC(=O)[C@@H](NC(=O)[C@H](C)NC(=O)[C@H](CO)NC(=O)[C@H](CCCCN)NC(=O)[C@H](Cc1ccccc1)NC(=O)[C@@H](NC(=O)[C@H](CCCCN)NC(=O)[C@H](CC(C)C)NC(=O)[C@H](Cc1ccccc1)NC(=O)[C@H](CO)NC(=O)[C@H](CCCCN)NC(=O)[C@H](Cc1c[nH]c2ccccc12)NC(=O)[C@H](CCCCN)NC(C)=O)[C@@H](C)O)C(C)C)[C@@H](C)O)C(C)C)[C@@H](C)O)C(=O)N[C@@H](CO)C(=O)N[C@@H](CO)C(N)=O [Peptide V681, reference compound]
- MIC (μg/ml) E. coli C500 abs ([1]; antibiotic sensitive strain): 3.1 µg/mL (≈ 1.05 µM)
- MIC (μg/ml) E. coli C498 wt ([1]; wild-type lab strain): 6.3 µg/mL (≈ 2.13 µM)
- MIC (μg/ml) St C587 wt [2]: 12.5 µg/mL (≈ 4.22 µM)
- MIC (μg/ml) Pa H188 abs (P. aeruginosa H187 wt): 3.1 µg/mL (≈ 1.05 µM)
- MIC (μg/ml) Pa H187 wt (P. aeruginosa H187 wt; H187 wt): 6.3 µg/mL (≈ 2.13 µM)
- MIC (μg/ml) St C610 abs (S. typhimurium C610 abs): 3.1 µg/mL (≈ 1.05 µM)
- MIC (μg/ml) B. subtilis C971 wt (Bacillus subtilis): 3.1 µg/mL (≈ 1.05 µM)
- MIC (μg/ml) S. aureus 623 methR (Staphylococcus aureus; methicillin-resistant clinical strain): 6.3 µg/mL (≈ 2.13 µM)
- MIC (μg/ml) S. aureus 622 wt (Staphylococcus aureus; wild type strain): 3.1 µg/mL (≈ 1.05 µM)
- MIC (μg/ml) S. epidermidis C621 wt [3]: 6.3 µg/mL (≈ 2.13 µM)
- Hemolytic activity MHC (human erythrocytes; maximal peptide concentration producing no hemolysis after 18 hours, 37° C.): 7.8 µg/mL
- MHC (μg/ml) hRBC (human erythrocytes; Table 11): 7.8 µg/mL
- MHC (μg/ml) hRBC (human erythrocytes; Table 12): 7.8 µg/mL
- tR (min) 5° C. ([4]; RP-HPLC retention time at 5° C. during temperature profiling (measure of hydrophobicity)): 48.10 min
- tR (min) 80° C. ([4]; RP-HPLC retention time at 80° C. during temperature profiling): 45.83 min
- Hydrophobicity tR5 ([4]; RP-HPLC retention time at pH 2, 5° C.): 96.6 min
- Hydrophobicity tR80 ([4]; RP-HPLC retention time at pH 2, 80° C.): 88.8 min
- overall hydrophobicity change relative to PVL ([4]; RP-HPLC retention time difference at 80° C., polar face substitutions): -0.35 min
- tR (min) Max ([4]; maximal RP-HPLC retention time during temperature profiling 5-80° C.): 49.99 min
- PA (min) association parameter ([4]; maximal retention time difference relative to control peptide C within 5-80° C.): 3.63 min
- PA (dimerization / self-association parameter) ([4]; maximal retention time difference relative to control peptide C, 5-80° C.): 7.2
- ΔtR (X-NVL) (min) 5° C. ([4]; non-polar face substitutions, retention time difference relative to native peptide V681 (NVL) at 5° C., relative hydrophobicity): 0 min
- ΔtR (X-NVL) (min) 80° C. ([4]; non-polar face substitutions, retention time difference relative to native peptide V681 (NVL) at 80° C., relative hydrophobicity): 0 min
- ΔtR (X-PSL) (min) 5° C. ([4]; polar face substitutions, retention time difference relative to native peptide V681 (PSL) at 5° C., relative hydrophobicity): 0 min
- ΔtR (X-PSL) (min) 80° C. ([4]; polar face substitutions, retention time difference relative to native peptide V681 (PSL) at 80° C., relative hydrophobicity): 0 min
